Measurements: article PMC8000592, “Discovery and Optimization of Selective Inhibitors of Meprin α (Part I)” (Pharmaceuticals, 2021)
pIC50, pKi: −log10 of the molar value.

Tests used:
MMP2 = target: T1, MMP2 (Homo sapiens, UniProt P08253); assay: MMP assay (Mca-KPLGL-Dpa-AR-NH2 substrate); assay type: biochemical; conditions: triplicate, 10-point, 3:1 serial dilution, highest concentration 17.4 µM
T1 construct: purchased R&D Systems 902-MP
T1 sequence (P08253 110-660): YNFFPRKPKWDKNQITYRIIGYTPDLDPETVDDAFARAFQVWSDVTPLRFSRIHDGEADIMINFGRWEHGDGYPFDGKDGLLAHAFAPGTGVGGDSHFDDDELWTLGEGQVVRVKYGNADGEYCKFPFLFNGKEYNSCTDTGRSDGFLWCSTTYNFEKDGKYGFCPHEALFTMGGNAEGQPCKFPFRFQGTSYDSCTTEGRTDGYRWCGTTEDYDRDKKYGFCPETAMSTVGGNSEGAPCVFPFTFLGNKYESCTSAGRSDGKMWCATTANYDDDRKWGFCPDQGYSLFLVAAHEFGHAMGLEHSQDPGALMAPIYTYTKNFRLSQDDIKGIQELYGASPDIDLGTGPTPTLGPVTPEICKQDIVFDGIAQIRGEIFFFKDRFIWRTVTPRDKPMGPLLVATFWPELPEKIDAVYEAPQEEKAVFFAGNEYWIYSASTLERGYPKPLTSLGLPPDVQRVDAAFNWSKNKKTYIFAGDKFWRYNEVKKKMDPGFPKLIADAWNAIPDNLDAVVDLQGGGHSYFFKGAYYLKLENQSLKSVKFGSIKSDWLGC
Method: (§1) We were able to procure 64 out of 87 selected compounds from commercial sources, which we tested in triplicate, 10-point, 3:1 serial dilution concentration response format starting at the highest concentration of 17.4 µM against both meprin α and meprin β. In addition to meprins, we also tested 64 hits against related metzincins (MMP-2, MMP-3, MMP-8, MMP-9, MMP-10, MMP-14, ADAM10, and ADAM17) to ascertain general nonpromiscuity against zinc-dependent proteases.
(§2) All assays followed the same general protocol. A 5 µL portion of 2 × enzyme solution (5 nM) in assay buffer (50 mM Tricine, 50 mM NaCl, 10 mM CaCl2, 0.05% Brij-35, pH 7.5) was added to solid bottom black 384 plates (Nunc, cat# 264705). Next, test compounds and pharmacological controls were added to corresponding wells using a 384-pin tool device (V&P Scientific, San Diego, CA, USA). After 30 min incubation at RT, the reactions were started by addition of 5 µL of 2x solutions of substrate (R&D Systems cat#: ES010, Mca-KPLGL-Dpa-AR-NH2, 20 µM). Reactions were incubated at RT for 1 h, after which the fluorescence was measured using the Synergy H4 multimode microplate reader (Biotek Instruments) (λexcitation = 324 nm, λemission = 390 nm).

MMP3 = MMP3 (Homo sapiens, UniProt P08254); assay: MMP assay (Mca-KPLGL-Dpa-AR-NH2 substrate); assay type: biochemical; conditions: triplicate, 10-point, 3:1 serial dilution, highest concentration 17.4 µM
Method: as §1, §2

MMP9 = target: T2, MMP9 (Homo sapiens, UniProt P14780); assay: MMP assay (Mca-KPLGL-Dpa-AR-NH2 substrate); assay type: biochemical; conditions: triplicate, 10-point, 3:1 serial dilution, highest concentration 17.4 µM
T2 construct: purchased R&D Systems 911-MP
Method: as §1, §2

[1] = test system: BJ skin fibroblasts and primary melanocytes; assay: Cell toxicity studies (CellTiter-Glo, 72 h); assay type: cell-based; conditions: skin fibroblast and melanocyte viability
Method: We also tested representative compounds from each scaffold for effects on skin fibroblast and melanocyte viability to ascertain cytotoxicity towards various skin cell types.
Test compounds were solubilized in 100% DMSO and added to polypropylene 384 well plates (Greiner cat# 781280). The 1250 of BJ skin fibroblasts (ATCC CRL-2522) and primary melanocytes (ATCC PCS-200-013) were plated in 384 well plates in 8 µL of serum-free media […]. Test compounds and pharmacological assay control (lapatinib) were prepared as 10-point, 1:3 serial dilutions starting at 10 mM, then added to the cells using the pin tool mounted on the Integra 384. Plates were incubated for 72 h at 37 °C, 5% CO2 and 95% relative humidity. […] Luminescence was recorded using a Biotek Synergy H1 multimode microplate reader. Viability was expressed as a percentage relative to wells containing media only (0%) and wells containing cells treated with DMSO only (100%). Three parameters were calculated on a per plate basis: (a) the signal-to-background ratio (S/B); (b) the coefficient for variation (CV; CV = (standard deviation/mean) × 100)) for all compound test wells; and (c) the Z’-factor. IC50 values were calculated by fitting normalized data to sigmoidal log versus response equation utilizing nonlinear regression analysis from GraphPad Prizm 8.

meprin β = conditions: cited from earlier work
MMP and ADAM = conditions: cited from earlier work

T2 sequence (P14780 94-707): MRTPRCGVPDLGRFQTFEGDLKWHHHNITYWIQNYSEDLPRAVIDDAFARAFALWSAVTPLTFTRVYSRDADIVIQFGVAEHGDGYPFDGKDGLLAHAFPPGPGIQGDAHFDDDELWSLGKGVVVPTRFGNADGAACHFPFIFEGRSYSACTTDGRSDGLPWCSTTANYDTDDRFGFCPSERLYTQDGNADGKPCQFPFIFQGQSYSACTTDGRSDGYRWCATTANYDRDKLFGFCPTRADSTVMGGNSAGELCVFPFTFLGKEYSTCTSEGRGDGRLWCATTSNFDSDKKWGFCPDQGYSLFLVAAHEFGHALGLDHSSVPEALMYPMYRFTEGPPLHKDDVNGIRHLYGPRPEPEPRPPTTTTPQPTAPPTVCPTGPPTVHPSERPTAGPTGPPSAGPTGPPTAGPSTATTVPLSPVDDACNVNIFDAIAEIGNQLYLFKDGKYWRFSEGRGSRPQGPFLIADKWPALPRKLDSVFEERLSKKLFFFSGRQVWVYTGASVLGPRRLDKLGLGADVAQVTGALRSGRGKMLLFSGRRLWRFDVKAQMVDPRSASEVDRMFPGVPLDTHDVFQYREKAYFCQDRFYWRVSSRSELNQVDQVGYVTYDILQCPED
MMP3, sequence (P08254 100-477, species assumed): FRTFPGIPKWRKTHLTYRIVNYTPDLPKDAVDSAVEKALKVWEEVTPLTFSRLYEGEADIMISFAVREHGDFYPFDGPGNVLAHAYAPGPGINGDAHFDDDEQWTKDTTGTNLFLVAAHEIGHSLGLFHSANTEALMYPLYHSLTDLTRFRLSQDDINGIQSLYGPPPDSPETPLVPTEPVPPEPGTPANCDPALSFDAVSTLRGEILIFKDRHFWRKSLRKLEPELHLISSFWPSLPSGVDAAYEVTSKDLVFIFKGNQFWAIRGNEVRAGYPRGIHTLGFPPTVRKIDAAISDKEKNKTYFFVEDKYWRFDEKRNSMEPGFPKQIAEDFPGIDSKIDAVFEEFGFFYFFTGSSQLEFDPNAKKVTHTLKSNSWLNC

| SMILES | pIC50 (MMP2) | pIC50 (MMP3) | pIC50 (MMP9) | cytotoxicity (effect on cell viability) [1] | pKi (meprin β) | selectivity against adamalysins and matrixins (MMP and ADAM) |
| --- | --- | --- | --- | --- | --- | --- |
| O=C(CSc1nnc(NC(=O)c2ccccc2)s1)NO [Compound 19847] | 5.54 | < 4.77 | < 4.77 |  |  |  |
| O=C(CSc1nnc(NC(=O)COc2ccccc2)s1)NO [Compound 19848] | < 4.77 | < 4.77 | < 4.77 |  |  |  |
| COc1cc(OC)cc(C(=O)CNc2nnc(SCC(=O)NO)s2)c1 [Compound 19849] | < 4.77 | < 4.77 | < 4.77 |  |  |  |
| COc1ccc(-n2c(CSc3ncccn3)nnc2SCC(=O)NO)cc1 [Compound 19855] | < 4.77 | < 4.77 | < 4.77 |  |  |  |
| O=C(CCN(Cc1cccs1)S(=O)(=O)c1ccc([N+](=O)[O-])cc1)NO [Compound 162799] | < 4.77 | < 4.77 | < 4.77 |  |  |  |
| O=C(CCN(Cc1ccccc1)S(=O)(=O)c1ccc(F)cc1)NO [Compound 162808] | 4.77 | < 4.77 | < 4.77 | no cytotoxicity |  |  |
| O=C(COc1ccc(Cl)cc1Cl)NO [Compound 1596857] | < 4.77 | < 4.77 | < 4.77 |  |  |  |
| O=C(Nc1cc(C(=O)Nc2ccc(S(=O)(=O)O)cc2S(=O)(=O)O)cc(C(=O)Nc2ccc(S(=O)(=O)O)cc2S(=O)(=O)O)c1)Nc1cc(C(=O)Nc2ccc(S(=O)(=O)O)cc2S(=O)(=O)O)cc(C(=O)Nc2ccc(S(=O)(=O)O)cc2S(=O)(=O)O)c1 [NFF449] |  |  |  |  | 7.66 | good selectivity |
| O=[N+]([O-])c1ccc(CN2CCC3(CCc4ccccc43)CC2)o1 [SR207820] | < 4.77 | 4.77 | < 4.77 |  |  |  |
| O=C(c1ccc(C(=O)O)c([N+](=O)[O-])c1)c1ccc(C(=O)O)c([N+](=O)[O-])c1 [SR355996] | < 4.77 | < 4.77 | 4.77 |  |  |  |
| CSc1nnc2c(n1)OC(c1ccc([N+](=O)[O-])o1)Nc1ccccc1-2 (stereo not drawn) [SR412882] | < 4.77 | 4.82 | < 4.77 |  |  |  |
